Literature values in patent US20040197404A1, “Extended release oral dosage form” (priority 2001, published 2004).

Conditions: in vivo

## NC(=O)c1ccc(F)c2c1C[C@@H](N(C1CCC1)C1CCC1)CO2.O.O=C(O)C(O)C(O)C(=O)O [(R)-3-N,N-dicyclobutylamino-8-fluoro-3,4-dihydro-2H-1-benzopyran-5-carboxamide hydrogen (2R,3R)-tartrate monohydrate]
  plasma elimination half-life, t1/2: 1.5 h
